The values that follow are results of earlier work, collected in patent US20110230549A1, “PHARMACEUTICAL COMPOSITIONS FOR THE TREATMENT OF PAIN” (GW Pharma Limited, priority 2005, published 2011).

Data set [1] concerns PBQ-induced writhing in mice. Particulars: compared among cannabinoids and pre-cursors.
Data set [2] concerns patient with familial Mediterranean fever. Particulars: 50 mg.

The structures appear in SMILES notation.

Turning to `CCCCCc1cc(O)c2c(c1)OC(C)(C)[C@@H]1CCC(C)=C[C@@H]21` [THC, delta-9-tetrahydrocannabinol], in data set [1], the “Effectiveness at reducing analgesia and inflammation” value was “least effective”. The “Amount of analgesia that the patient required” value in data set [2] is given as “highly significant reduction”.

`CCCCCc1cc(O)c2c(c1)OC(C)(C)c1ccc(C)cc1-2` [CBN]: the “Effectiveness at reducing analgesia and inflammation” value in data set [1] was “least effective”.

For the compound `C=C(C)[C@@H]1CCC(C)=C[C@H]1c1c(O)cc(CCCCC)cc1O` [CBD, cannabidiol], in data set [1] (oral administration), the “Inhibition of PBQ-induced writhing in mice” value is “most effective”.
